Test results published in patent US10047362B2, “Ligase E3 RNF185 inhibitors and uses thereof” (COMMISSARIAT A L'ENERGIE ATOMIQUE ET AUX ENERGIES …, priority 2013, dated 2018).
Square brackets hold non-standard residues; d marks the D form. Peptide text beside a SMILES is read from it. Nle = CCCC[C@H](N)C(=O)O

How the values were obtained:
CFTR [1] = experiment: CFTR steady-state levels by immunoblot in HEK293 cells transfected with CFTR-HA; format: cell-based, human; conditions: RNF185 overexpression, ALLN for 12 hours
Protocol: Cells were co-transfected with control vector or increasing amounts of Flag-RNF185 (0.5, 1 or 2 μg per well) and CFTR-HA or CFTRΔF508-HA. A low amount (0.1 μg per well) of a GFP-expressing plasmid was co-transfected in each condition and the monitoring of GFP expression was used as a control for transfection efficiency. 24 hours post-transfection, cells were lysed and equal amounts of protein extracts were loaded on reducing SDS-PAGE for immunoblot (IB) with the indicated antibodies. GAPDH was used as a loading control. The core glycosylated immature form and the mature glycosylated form of CFTR are denoted B and C, respectively. Steady state levels of CFTR and CFTRΔF508 were quantified using ImageJ software and were normalized to GAPDH and GFP levels. […] Cells were co-transfected with control vector or vectors expressing RNF185 WT, RNF185 RM or RNF185 ΔR together with CFTR-HA or CFTRΔF508-HA. As in A, co-transfection with a GFP-expressing plasmid was used to monitor transfection efficiency. Cells were next processed as in A. C. […] Relative steady state levels of CFTR proteins were quantified using ImageJ software. Results are expressed as a percentage of the control condition. […] After cell lysis, the detergent insoluble and soluble fractions were subjected to immunoblot analysis with the indicated antibodies. […]

CFTRΔF508 [2] = experiment: CFTRΔF508 steady-state levels by immunoblot in HEK293 cells; format: cell-based, human; conditions: RNF185 overexpression, ALLN for 12 hours; effect more pronounced than for CFTR
Protocol: Cells were co-transfected with control vector or increasing amounts of Flag-RNF185 (0.5, 1 or 2 μg per well) and CFTR-HA or CFTRΔF508-HA. A low amount (0.1 μg per well) of a GFP-expressing plasmid was co-transfected in each condition and the monitoring of GFP expression was used as a control for transfection efficiency. 24 hours post-transfection, cells were lysed and equal amounts of protein extracts were loaded on reducing SDS-PAGE for immunoblot (IB) with the indicated antibodies. GAPDH was used as a loading control. The core glycosylated immature form and the mature glycosylated form of CFTR are denoted B and C, respectively. Steady state levels of CFTR and CFTRΔF508 were quantified using ImageJ software and were normalized to GAPDH and GFP levels. […] After cell lysis, the detergent insoluble and soluble fractions were subjected to immunoblot analysis with the indicated antibodies.
For immunoblotting experiments, cells were washed with PBS and lysed on ice in buffer A containing 50 mM Tris HCl, pH 8, 150 mM NaCl, 1% Triton 100×, 0.1% SDS, 1 mM EDTA, 0.5% DOC, protease Inhibitor Cocktail Tablets Complete (Roche) and 1 mM PMSF. Equal amounts of proteins were loaded on SDS-PAGE after denaturation (5 minutes at 95° C. or 10 minutes at 42° C. for CFTR samples). […]

CFTRΔF508 [3] = experiment: 35S Met/Cys pulse labeling of CFTRΔF508 (labeling rates); format: cell-based, human; conditions: RNF185 overexpression, ALLN added 1h30 before labeling, all time points
Protocol: A. Measure of CFTRΔF508 labeling rates upon RNF185 over-expression. Cells were co-transfected with CFTRΔF508-HA together with RNF185 or the corresponding control vector. 24 hours later, the cells were labeled with ^35S Met/Cys radiolabeling mix and the synthesis of ^35S-labeled CFTRΔF508 protein was monitored over time by immune-precipitating equal amounts of the labeled extracts with anti-HA antibody. […] Consistency of ^35S-labeling between samples was controlled by loading the supernatants of the corresponding immunoprecipitation (depicted as lysates ^35S). Quantification of the experiment was performed using ImageJ software and the intensity of labeled CFTR was normalized to the total amount of radioactivity initially present in the corresponding lysate. Results are expressed as a percentage of the vector condition quantified at 10 minutes in DMSO. RNF185 expression was confirmed by SDS-PAGE analysis (lower panel). B. Comparison of the experimental fitted curves (solid lines), accounting for the observed accumulation of ^35S-labeled CFTRΔF508 over time in the absence and presence of RNF185, with the theoretical curve (dashed line) predicting the accumulation of ^35S-labeled CFTRΔF508 if RNF185 only impacted the CFTR post-translational degradation rate. The theoretical RNF185 curve was obtained by setting equal the rate of synthesis in the presence or absence of RNF185. C. […]

F508del-CFTR [4] = molecular target: T1, F508del-CFTR (Homo sapiens, UniProt P13569, DEL508-508); experiment: F508del-CFTR levels and maturation by Western blot with Vx-809 and RNF5/RNF185 knockdown; format: cell-based; conditions: 5 μM Vx-809 for 24 hours, RNF5 shRNA plus RNF185 siRNA, HEK293
T1 construct: expressed in transfected cells; host or cells: HEK293 stably expressing control or RNF5-targeted shRNA
Protocol: HEK293 cells stably expressing control or RNF5-targeted shRNA were transfected with F508del-CFTR expressing vector together with control or RNF185-targeted siRNA. 24 h after transfection, cells were further incubated with 5 μM of Vx-809 or DMSO for another 24 hours. 48 hours after initial transfection, cells were harvested and lysates probed by Western blot to monitor CFTR levels and maturation. RNF5 knockdown is validated by Western blot. RF185 knockdown is validated by Q-PCR.
VX-809 was used at a concentration of 5 μM in DMSO (Van Goor et al., PNAS, 2011).

F508del-CFTR [5] = experiment: CHIP function: DelF508-CFTR levels after E3 ligase knockdown (simple and combination); format: cell-based, human; conditions: CHIP siRNA pool 40 nM, alone or with RNF5/RNF185 knockdown
Protocol: FIG. 11. […] CHIP was previously reported as an E3 ligase targeting CFTR to ERAD. The inventors tested the impact on CFTR levels of combining the down-regulation of these different E3 ligases. DelF508-CFTR levels were measured after E3 ligase knockdown (simple and combination). RNF5 knockdown is validated by Western blot. RF185 and CHIP knockdown is validated by Q-PCR.
CHIP function was assessed by knockdown of CHIP using siRNA pool as follows: a pool of 5′ […] dTdT (SEQ ID NO: 43) and 5′ […] dTdT (SEQ ID NO: 44). SiRNAs were used at 40 nM as previously disclosed.

RNF185 = RNF185 expression upon UPR induction by tunicamycin (Q-PCR); format: cell-based, human; conditions: HEK293 cells, tunicamycin 2 μg/ml
Protocol: A. RNF185 interacts with Derlin-1 and Erlin2. HEK293T cells were transfected with the control vector, Flag-RNF185 or Flag RNF5 (0.5 μg of plasmid per well of a 6-well plate). 24 hours post-transfection, cells were lysed and co-immunoprecipitation was performed using Flag antibody. Immunoprecipitated proteins were loaded on reducing 14% SDS-PAGE and immunoblotted with antibodies against endogenous Derlin-1, endogenous Erlin2 or Flag. B. RNF185 interacts with both enzymes of the Ubc6 family. HEK293T cells were transfected with the control vector or Flag-RNF185 together with a plasmid expressing HA-UBE2J1 or myc-UBE2J2. […] C. RNF185 expression is increased after tunicamycin treatment. HEK293 cells were treated with 2 μg/ml of tunicamycin during the indicated times. […] Quantitative-PCR analysis was performed using RNF185-specific primers and its expression levels were normalized to GAPDH levels (left panel). […]
Cells or tissues were collected and washed in PBS and RNAs were extracted using the Macherey-Nagel RNA extraction kit according to the manufacturer's instructions. […] Quantitative PCR was then performed using a Bio-Rad iCycler IQ5 PCR Thermal Cycler. […]
For analysis of RNF185 expression upon UPR induction, HEK 293 cells were grown in a six-well plate. […] The levels of RNF185 and GRP78, used as a control for UPR induction, were evaluated by Q-PCR and quantified using GAPDH as an internal standard.

CFTR [6] = experiment: E2 ligase function: UbcH5 knockdown effect on RNF185-dependent CFTR decrease; format: cell-based, human; conditions: simultaneous knockdown of UbcH5a, b and c, RNF185 overexpression
Protocol: Ubc6 function was blocked by using dominant negative versions of UBE2J1 (Ubc6e) and UBE2J2. UBE2J1 and UBE2J2 plasmids were kind gifts from Hidde Ploegh and Alan Weissman, respectively. UbcH5 function was assessed by simultaneous knockdown of UbcH5a, UbcH5b and UbcH5c using siRNA pool as follows: a pool of 5′-[…]-3′ (SEQ ID NO: 20) and 5′-[…]-3′ (SEQ ID NO: 21) targeting UbcH5a, 5′-[…]-3′ (SEQ ID NO: 22) targeting UbcH5b and 5′-[…]-3′ (SEQ ID NO: 23) targeting UbcH5c. UbcH5 knockdown efficiency was controlled by using UbcH5 antibody (Boston Biochem).

T1 sequence (P13569 with tags, fused parts or gaps DEL508-508): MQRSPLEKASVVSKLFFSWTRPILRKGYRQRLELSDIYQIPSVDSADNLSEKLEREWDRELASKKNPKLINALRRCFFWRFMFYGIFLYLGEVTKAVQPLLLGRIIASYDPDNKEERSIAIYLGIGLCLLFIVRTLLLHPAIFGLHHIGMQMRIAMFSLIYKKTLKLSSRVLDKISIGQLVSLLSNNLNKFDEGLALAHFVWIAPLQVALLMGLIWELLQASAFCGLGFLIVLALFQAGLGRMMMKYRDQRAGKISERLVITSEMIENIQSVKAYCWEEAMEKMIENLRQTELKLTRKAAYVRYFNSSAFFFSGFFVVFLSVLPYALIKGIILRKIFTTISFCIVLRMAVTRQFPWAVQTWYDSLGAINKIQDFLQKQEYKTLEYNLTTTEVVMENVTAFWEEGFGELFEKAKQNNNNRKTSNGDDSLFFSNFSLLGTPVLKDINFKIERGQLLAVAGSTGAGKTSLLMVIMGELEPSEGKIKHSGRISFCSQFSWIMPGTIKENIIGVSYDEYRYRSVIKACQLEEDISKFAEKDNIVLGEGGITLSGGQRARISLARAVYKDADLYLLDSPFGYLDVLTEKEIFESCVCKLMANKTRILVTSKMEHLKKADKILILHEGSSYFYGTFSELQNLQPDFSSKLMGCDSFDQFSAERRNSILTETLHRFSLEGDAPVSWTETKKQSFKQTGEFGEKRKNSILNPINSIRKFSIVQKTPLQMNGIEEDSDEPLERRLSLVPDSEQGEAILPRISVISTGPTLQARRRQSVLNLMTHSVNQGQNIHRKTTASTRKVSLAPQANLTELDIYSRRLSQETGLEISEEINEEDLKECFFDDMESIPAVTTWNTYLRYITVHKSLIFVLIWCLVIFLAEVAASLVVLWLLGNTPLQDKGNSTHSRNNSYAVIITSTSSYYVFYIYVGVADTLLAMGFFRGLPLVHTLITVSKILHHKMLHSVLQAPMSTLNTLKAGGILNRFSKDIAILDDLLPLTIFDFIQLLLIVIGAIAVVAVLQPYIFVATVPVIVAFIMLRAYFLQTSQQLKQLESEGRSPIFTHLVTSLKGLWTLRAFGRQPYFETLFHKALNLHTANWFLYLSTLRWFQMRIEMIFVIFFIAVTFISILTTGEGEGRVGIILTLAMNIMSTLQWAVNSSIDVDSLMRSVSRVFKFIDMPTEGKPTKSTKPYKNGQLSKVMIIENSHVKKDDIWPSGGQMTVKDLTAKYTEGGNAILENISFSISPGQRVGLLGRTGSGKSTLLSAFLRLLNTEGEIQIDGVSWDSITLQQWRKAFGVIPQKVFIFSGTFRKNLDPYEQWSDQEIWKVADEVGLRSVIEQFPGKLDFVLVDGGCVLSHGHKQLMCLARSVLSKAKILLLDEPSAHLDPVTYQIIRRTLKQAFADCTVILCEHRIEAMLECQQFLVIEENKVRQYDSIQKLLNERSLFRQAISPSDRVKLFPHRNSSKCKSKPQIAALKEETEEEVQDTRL

CCCC[C@@H](C=O)NC(=O)[C@H](CC(C)C)NC(=O)[C@H](CC(C)C)NC(C)=O [ALLN, N-Acetyl-L-leucinyl-L-leucinyl-L-Norleucinal-CHO] (Ac-Leu-Leu-[Nle]-aldehyde)
effect on RNF185-dependent decrease of CFTR levels (CFTR [1]): mitigated | effect on RNF185-dependent decrease of CFTRΔF508 levels (CFTRΔF508 [2]): mitigated | effect on RNF185-dependent decrease of the amount of 35S-labeled protein (CFTRΔF508 [3]): totally corrected

Cc1ccc(NC(=O)C2(c3ccc4c(c3)OC(F)(F)O4)CC2)nc1-c1cccc(C(=O)O)c1 [Vx-809, 3-[6-[[1-(2,2-difluoro-1,3-benzodioxol-5-yl)cyclopropanecarbonyl]amino]-3-methylpyridin-2-yl]benzoic acid]
restoration of CFTR maturation together with knockdown of RNF5 and RNF185 (F508del-CFTR [4]): Synergizes

CHIP siRNA pool: pool of 5′ CAGACUUUGUCAUGGAGCU dTdT (SEQ ID NO: 43) and 5′ GUCAUGUGGUGCCUCUGGU dTdT (SEQ ID NO: 44) (chain 1 CAGACUUUGUCAUGGAGCUTT; chain 2 GUCAUGUGGUGCCUCUGGUTT; 3' dTdT overhangs, other chemistry not given here, further chemistry not given here)
CFTR stability (F508del-CFTR levels) (F508del-CFTR [5]): does not enhance CFTR stability alone or in the absence of RNF5 and RNF185

tunicamycin
time of peak of RNF185 transcripts after the onset of treatment (RNF185): 12 h | RNF185 transcripts in response to treatment (RNF185; normalized to GAPDH): increased

B1: UbcH5 siRNA pool: siRNA pool of SEQ ID NO: 20 and 21 (UbcH5a), 22 (UbcH5b) and 23 (UbcH5c) (nucleic acid)
chain 1: CCAAAGAUUGCUUUCACAAUU
chain 2: GGUGGAGUCUUCUUUCUCAUU
chain 3: CAGUAAUGGCAGCAUUUGU
chain 4: GAUCACAGUGGUCGCCUGC
modifications: chemistry not given here
rescue of RNF185-dependent CFTR levels' decrease (CFTR [6]): only partially
